Laboratory results from patent US7390806B2, “Antibiotics containing borinic acid complexes and methods of use” (Anacor Pharmaceuticals, Inc., priority 2002, dated 2008).
In brackets after ≈: the same amount, converted by molar mass.

test system: S. aureus ATCC 29213; experiment: MIC determination, S. aureus ATCC 29213; assay type: cell-based, Staphylococcus aureus; conditions: Staphylococcus aureus, ATCC29213, Table 1; read-out: MIC S. aureus ATCC 29213

Row | SMILES | MIC [µg/mL]
1 | C[C@@H](O)[C@H]1C(=O)N2C(C(=O)O)=C(SCCN=CN)C[C@H]12 [Imipenem, reference compound] | 0.125 (≈ 0.418 µM)
2 | CO/N=C(\C(=O)N[C@@H]1C(=O)N2C(C(=O)O)=C(CSc3nc(=O)c(=O)[nH]n3C)CS[C@H]12)c1csc(N)n1 [Ceftriaxone, reference compound] | 2 (≈ 3.61 µM)
3 | Cc1onc(-c2ccccc2Cl)c1C(=O)N[C@@H]1C(=O)N2[C@@H]1SC(C)(C)[C@@H]2C(=O)O [Cloxacillin, reference compound] | 0.125 (≈ 0.287 µM)

same assay, conditions: Staphylococcus aureus, ATCC29213, Table 2; read-out: MIC S. aureus ATCC 29213

Row | SMILES | MIC [µg/mL]
4 | C[C@@H](O)[C@H]1C(=O)N2C(C(=O)O)=C(SCCN=CN)C[C@H]12 [Imipenem, reference compound] | 0.12 (≈ 0.401 µM)
5 | O=C(O)c1cccnc1C(=O)O [Compound 110, 3-carboxypicolinic acid] | 0.125 (≈ 0.748 µM)
6 | Nc1ccc(O)c(C(=O)O)n1 [Compound 122] | 0.25 (≈ 1.62 µM)
7 | O=C(O)c1ncccc1OCCN1CCOCC1 [Compound 108] | 0.25 (≈ 0.991 µM)
8 | O=C(O)c1ncccc1OCCO [Compound 107] | 0.125 (≈ 0.682 µM)
9 | CO/N=C(\C(=O)N[C@@H]1C(=O)N2C(C(=O)O)=C(CSc3nc(=O)c(=O)[nH]n3C)CS[C@H]12)c1csc(N)n1 [Ceftriaxone, reference compound] | 2 (≈ 3.61 µM)
10 | Cc1onc(-c2ccccc2Cl)c1C(=O)N[C@@H]1C(=O)N2[C@@H]1SC(C)(C)[C@@H]2C(=O)O [Cloxacillin, reference compound] | 0.12 (≈ 0.275 µM)
11 | OCc1ccccn1 [Compound 105, 2-hydroxymethylpyridine] | 0.125 (≈ 1.15 µM)

same assay, conditions: Table 2

Row | SMILES | MIC S. aureus ATCC 29213 [micrograms per ml]
12 | O=C(O)c1ncccc1O [Compound 113, 3-hydroxypicolinic acid] | 0.5
13 | CC(=O)Oc1ccc[n+]2c1C(=O)O[B-]2(c1ccc(C)c(Cl)c1)c1ccc(C)c(Cl)c1 [Compound 119] | 2

test system: S. epidermidis ATCC 12228; experiment: MIC determination, S. epidermidis ATCC 12228; assay type: cell-based, Staphylococcus epidermidis; conditions: Staphylococcus epidermidis, ATCC12228, Table 1; read-out: MIC S. epidermidis ATCC 12228

Row | SMILES | MIC [µg/mL]
14 | C[C@@H](O)[C@H]1C(=O)N2C(C(=O)O)=C(SCCN=CN)C[C@H]12 [Imipenem, reference compound] | 0.125 (≈ 0.418 µM)
15 | CO/N=C(\C(=O)N[C@@H]1C(=O)N2C(C(=O)O)=C(CSc3nc(=O)c(=O)[nH]n3C)CS[C@H]12)c1csc(N)n1 [Ceftriaxone, reference compound] | 1 (≈ 1.8 µM)
16 | Cc1onc(-c2ccccc2Cl)c1C(=O)N[C@@H]1C(=O)N2[C@@H]1SC(C)(C)[C@@H]2C(=O)O [Cloxacillin, reference compound] | 0.25 (≈ 0.574 µM)

same assay, conditions: Staphylococcus epidermidis, ATCC12228, Table 2; read-out: MIC S. epidermidis ATCC 12228

Row | SMILES | MIC [µg/mL]
17 | C[C@@H](O)[C@H]1C(=O)N2C(C(=O)O)=C(SCCN=CN)C[C@H]12 [Imipenem, reference compound] | 0.12 (≈ 0.401 µM)
18 | O=C(O)c1cccnc1C(=O)O [Compound 110, 3-carboxypicolinic acid] | 4 (≈ 23.9 µM)
19 | Nc1ccc(O)c(C(=O)O)n1 [Compound 122] | 4 (≈ 26 µM)
20 | O=C(O)c1ncccc1OCCN1CCOCC1 [Compound 108] | 4 (≈ 15.9 µM)
21 | O=C(O)c1ncccc1OCCO [Compound 107] | 4 (≈ 21.8 µM)
22 | CO/N=C(\C(=O)N[C@@H]1C(=O)N2C(C(=O)O)=C(CSc3nc(=O)c(=O)[nH]n3C)CS[C@H]12)c1csc(N)n1 [Ceftriaxone, reference compound] | 1 (≈ 1.8 µM)
23 | Cc1onc(-c2ccccc2Cl)c1C(=O)N[C@@H]1C(=O)N2[C@@H]1SC(C)(C)[C@@H]2C(=O)O [Cloxacillin, reference compound] | 0.25 (≈ 0.574 µM)
24 | OCc1ccccn1 [Compound 105, 2-hydroxymethylpyridine] | 4 (≈ 36.7 µM)

same assay, conditions: Table 2

Row | SMILES | MIC S. epidermidis ATCC 12228 [micrograms per ml]
25 | O=C(O)c1ncccc1O [Compound 113, 3-hydroxypicolinic acid] | 1
26 | CC(=O)Oc1ccc[n+]2c1C(=O)O[B-]2(c1ccc(C)c(Cl)c1)c1ccc(C)c(Cl)c1 [Compound 119] | 1

test system: S. pneumoniae ATCC 6301; experiment: MIC determination, S. pneumoniae ATCC 6301; assay type: cell-based, Streptococcus pneumoniae; conditions: Streptococcus pneumoniae, ATCC6301, Table 1; read-out: MIC S. pneumoniae ATCC 6301

Row | SMILES | MIC [µg/mL]
27 | C[C@@H](O)[C@H]1C(=O)N2C(C(=O)O)=C(SCCN=CN)C[C@H]12 [Imipenem, reference compound] | 0.125 (≈ 0.418 µM)
28 | CO/N=C(\C(=O)N[C@@H]1C(=O)N2C(C(=O)O)=C(CSc3nc(=O)c(=O)[nH]n3C)CS[C@H]12)c1csc(N)n1 [Ceftriaxone, reference compound] | 0.125 (≈ 0.225 µM)
29 | Cc1onc(-c2ccccc2Cl)c1C(=O)N[C@@H]1C(=O)N2[C@@H]1SC(C)(C)[C@@H]2C(=O)O [Cloxacillin, reference compound] | 0.125 (≈ 0.287 µM)

same assay, conditions: Streptococcus pneumoniae, ATCC6301, Table 2; read-out: MIC S. pneumonia ATCC 6301

Row | SMILES | MIC [µg/mL]
30 | C[C@@H](O)[C@H]1C(=O)N2C(C(=O)O)=C(SCCN=CN)C[C@H]12 [Imipenem, reference compound] | < 0.125
31 | Nc1ccc(O)c(C(=O)O)n1 [Compound 122] | 16 (≈ 104 µM)
32 | CO/N=C(\C(=O)N[C@@H]1C(=O)N2C(C(=O)O)=C(CSc3nc(=O)c(=O)[nH]n3C)CS[C@H]12)c1csc(N)n1 [Ceftriaxone, reference compound] | < 0.125
33 | Cc1onc(-c2ccccc2Cl)c1C(=O)N[C@@H]1C(=O)N2[C@@H]1SC(C)(C)[C@@H]2C(=O)O [Cloxacillin, reference compound] | 0.12 (≈ 0.275 µM)
34 | OCc1ccccn1 [Compound 105, 2-hydroxymethylpyridine] | 4 (≈ 36.7 µM)

test system: E. faecalis ATCC 29212; experiment: MIC determination, E. faecalis ATCC 29212; assay type: cell-based, Enterococcus faecalis; conditions: Enterococcus faecalis, ATCC29212, Table 1; read-out: MIC E. faecalis ATCC 29212

Row | SMILES | MIC [µg/mL]
35 | C[C@@H](O)[C@H]1C(=O)N2C(C(=O)O)=C(SCCN=CN)C[C@H]12 [Imipenem, reference compound] | 1 (≈ 3.34 µM)
36 | CO/N=C(\C(=O)N[C@@H]1C(=O)N2C(C(=O)O)=C(CSc3nc(=O)c(=O)[nH]n3C)CS[C@H]12)c1csc(N)n1 [Ceftriaxone, reference compound] | 64 (≈ 115 µM)
37 | Cc1onc(-c2ccccc2Cl)c1C(=O)N[C@@H]1C(=O)N2[C@@H]1SC(C)(C)[C@@H]2C(=O)O [Cloxacillin, reference compound] | 16 (≈ 36.7 µM)

same assay, conditions: Enterococcus faecalis, ATCC29212, Table 2; read-out: MIC E. faecalis ATCC 29212

Row | SMILES | MIC [µg/mL]
38 | C[C@@H](O)[C@H]1C(=O)N2C(C(=O)O)=C(SCCN=CN)C[C@H]12 [Imipenem, reference compound] | 1 (≈ 3.34 µM)
39 | O=C(O)c1cccnc1C(=O)O [Compound 110, 3-carboxypicolinic acid] | 8 (≈ 47.9 µM)
40 | Nc1ccc(O)c(C(=O)O)n1 [Compound 122] | 32 (≈ 208 µM)
41 | O=C(O)c1ncccc1OCCN1CCOCC1 [Compound 108] | 4 (≈ 15.9 µM)
42 | O=C(O)c1ncccc1OCCO [Compound 107] | 16 (≈ 87.4 µM)
43 | CO/N=C(\C(=O)N[C@@H]1C(=O)N2C(C(=O)O)=C(CSc3nc(=O)c(=O)[nH]n3C)CS[C@H]12)c1csc(N)n1 [Ceftriaxone, reference compound] | 64 (≈ 115 µM)
44 | Cc1onc(-c2ccccc2Cl)c1C(=O)N[C@@H]1C(=O)N2[C@@H]1SC(C)(C)[C@@H]2C(=O)O [Cloxacillin, reference compound] | 16 (≈ 36.7 µM)
45 | OCc1ccccn1 [Compound 105, 2-hydroxymethylpyridine] | 32 (≈ 293 µM)

same assay, conditions: Table 2

Row | SMILES | MIC E. faecalis ATCC 29212 [micrograms per ml]
46 | O=C(O)c1ncccc1O [Compound 113, 3-hydroxypicolinic acid] | 2
47 | CC(=O)Oc1ccc[n+]2c1C(=O)O[B-]2(c1ccc(C)c(Cl)c1)c1ccc(C)c(Cl)c1 [Compound 119] | 2

test system: E. faecium CT-26; experiment: MIC determination, E. faecium CT-26; assay type: cell-based, Enterococcus faecium; conditions: Enterococcus faecium, CT26, Table 1; read-out: MIC E. faecium CT-26

Row | SMILES | MIC [µg/mL]
48 | C[C@@H](O)[C@H]1C(=O)N2C(C(=O)O)=C(SCCN=CN)C[C@H]12 [Imipenem, reference compound] | 64 (≈ 214 µM)
49 | CO/N=C(\C(=O)N[C@@H]1C(=O)N2C(C(=O)O)=C(CSc3nc(=O)c(=O)[nH]n3C)CS[C@H]12)c1csc(N)n1 [Ceftriaxone, reference compound] | 64 (≈ 115 µM)
50 | Cc1onc(-c2ccccc2Cl)c1C(=O)N[C@@H]1C(=O)N2[C@@H]1SC(C)(C)[C@@H]2C(=O)O [Cloxacillin, reference compound] | 64 (≈ 147 µM)

same assay, conditions: Enterococcus faecium, CT26, Table 2; read-out: MIC E. faecium CT-26

Row | SMILES | MIC [µg/mL]
51 | C[C@@H](O)[C@H]1C(=O)N2C(C(=O)O)=C(SCCN=CN)C[C@H]12 [Imipenem, reference compound] | 64 (≈ 214 µM)
52 | O=C(O)c1cccnc1C(=O)O [Compound 110, 3-carboxypicolinic acid] | 8 (≈ 47.9 µM)
53 | Nc1ccc(O)c(C(=O)O)n1 [Compound 122] | 32 (≈ 208 µM)
54 | O=C(O)c1ncccc1OCCN1CCOCC1 [Compound 108] | 2 (≈ 7.93 µM)
55 | O=C(O)c1ncccc1OCCO [Compound 107] | 8 (≈ 43.7 µM)
56 | CO/N=C(\C(=O)N[C@@H]1C(=O)N2C(C(=O)O)=C(CSc3nc(=O)c(=O)[nH]n3C)CS[C@H]12)c1csc(N)n1 [Ceftriaxone, reference compound] | 64 (≈ 115 µM)
57 | Cc1onc(-c2ccccc2Cl)c1C(=O)N[C@@H]1C(=O)N2[C@@H]1SC(C)(C)[C@@H]2C(=O)O [Cloxacillin, reference compound] | 64 (≈ 147 µM)
58 | OCc1ccccn1 [Compound 105, 2-hydroxymethylpyridine] | 32 (≈ 293 µM)

same assay, conditions: Table 2

Row | SMILES | MIC E. faecium CT-26 [micrograms per ml]
59 | O=C(O)c1ncccc1O [Compound 113, 3-hydroxypicolinic acid] | 64
60 | CC(=O)Oc1ccc[n+]2c1C(=O)O[B-]2(c1ccc(C)c(Cl)c1)c1ccc(C)c(Cl)c1 [Compound 119] | 2

test system: M. catarrhalis ATCC 25238; experiment: MIC determination, M. catarrhalis ATCC 25238; assay type: cell-based; conditions: Moraxella catarrhalis, ATCC25238, Table 1; read-out: MIC M. catarrhalis ATCC 25238

Row | SMILES | MIC [µg/mL]
61 | C[C@@H](O)[C@H]1C(=O)N2C(C(=O)O)=C(SCCN=CN)C[C@H]12 [Imipenem, reference compound] | 0.125 (≈ 0.418 µM)
62 | CO/N=C(\C(=O)N[C@@H]1C(=O)N2C(C(=O)O)=C(CSc3nc(=O)c(=O)[nH]n3C)CS[C@H]12)c1csc(N)n1 [Ceftriaxone, reference compound] | 0.125 (≈ 0.225 µM)
63 | Cc1onc(-c2ccccc2Cl)c1C(=O)N[C@@H]1C(=O)N2[C@@H]1SC(C)(C)[C@@H]2C(=O)O [Cloxacillin, reference compound] | 1 (≈ 2.29 µM)

test system: H. influenzae ATCC 49766; experiment: MIC determination, H. influenzae ATCC 49766; assay type: cell-based, Haemophilus influenzae; conditions: Haemophilus influenzae, ATCC49766; Table 2

Row | SMILES | MIC [µg/mL]
64 | C[C@@H](O)[C@H]1C(=O)N2C(C(=O)O)=C(SCCN=CN)C[C@H]12 [Imipenem, reference compound] | 2 (≈ 6.68 µM)
65 | O=C(O)c1cccnc1C(=O)O [Compound 110, 3-carboxypicolinic acid] | 8 (≈ 47.9 µM)
66 | Nc1ccc(O)c(C(=O)O)n1 [Compound 122] | 8 (≈ 51.9 µM)
67 | O=C(O)c1ncccc1OCCN1CCOCC1 [Compound 108] | 64 (≈ 254 µM)
68 | O=C(O)c1ncccc1OCCO [Compound 107] | 32 (≈ 175 µM)
69 | CO/N=C(\C(=O)N[C@@H]1C(=O)N2C(C(=O)O)=C(CSc3nc(=O)c(=O)[nH]n3C)CS[C@H]12)c1csc(N)n1 [Ceftriaxone, reference compound] | 0.12 (≈ 0.216 µM)
70 | Cc1onc(-c2ccccc2Cl)c1C(=O)N[C@@H]1C(=O)N2[C@@H]1SC(C)(C)[C@@H]2C(=O)O [Cloxacillin, reference compound] | 8 (≈ 18.4 µM)
71 | OCc1ccccn1 [Compound 105, 2-hydroxymethylpyridine] | 4 (≈ 36.7 µM)

same assay, conditions: Table 2

Row | SMILES | MIC H. influenzae ATCC 49766 [micrograms per ml]
72 | O=C(O)c1ncccc1O [Compound 113, 3-hydroxypicolinic acid] | 64
73 | CC(=O)Oc1ccc[n+]2c1C(=O)O[B-]2(c1ccc(C)c(Cl)c1)c1ccc(C)c(Cl)c1 [Compound 119] | 64
